In article PMC11335189, “Revealing molecular determinants governing mambalgin-3 pharmacology at acid-sensing ion channel 1 variants” (Cellular and Molecular Life Sciences: CMLS, 2024):
Positions of bridges follow the written chain, without caps; N, C: chain ends. No end group written: not given here.

How the values were obtained:
rASIC1b C208Q = target: T1, rASIC1b C208Q (Rattus norvegicus, UniProt P55926, C208Q); assay: TEVC oocytes, rASIC1b C208Q mutant; assay type: cell-based
T1 construct: expressed in transfected cells; host or cells: Xenopus laevis oocytes (cRNA injection)
T1 sequence (P55926 1-559 isoform P55926-3 C208Q): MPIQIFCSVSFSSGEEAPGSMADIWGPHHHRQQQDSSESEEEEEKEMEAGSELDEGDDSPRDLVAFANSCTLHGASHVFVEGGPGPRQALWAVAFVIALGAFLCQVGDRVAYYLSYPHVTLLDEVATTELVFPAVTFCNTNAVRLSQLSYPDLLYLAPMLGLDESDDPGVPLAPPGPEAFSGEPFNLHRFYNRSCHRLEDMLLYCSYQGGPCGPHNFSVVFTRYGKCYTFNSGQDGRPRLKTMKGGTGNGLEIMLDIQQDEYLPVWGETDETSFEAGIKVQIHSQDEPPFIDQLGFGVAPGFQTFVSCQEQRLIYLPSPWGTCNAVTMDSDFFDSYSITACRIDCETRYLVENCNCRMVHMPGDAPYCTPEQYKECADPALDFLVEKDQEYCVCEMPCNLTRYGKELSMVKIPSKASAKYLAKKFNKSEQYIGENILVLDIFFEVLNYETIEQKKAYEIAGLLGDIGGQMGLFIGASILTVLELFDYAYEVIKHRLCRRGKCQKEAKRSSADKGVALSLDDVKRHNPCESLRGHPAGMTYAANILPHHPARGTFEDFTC
Procedure: (§1) Two-electrode voltage-clamp (TEVC) experiments using Xenopus laevis oocytes were conducted as previously described. Briefly, oocytes were surgically removed from anaesthetised female frogs, then treated with collagenase (~ 1 mg/ml, Sigma type I) for 2 h under agitation at room temperature. cRNAs were synthesised using a mMessage mMachine T7 or SP6 transcription kit (Thermo Fisher Scientific Australia Pty Ltd, Scoresby, VIC, Australia) and injected into healthy stage V–VI oocytes at 0.2–20 ng per cell. […] Membrane currents were recorded 2–7 days after cRNA-injection under voltage-clamp at -60 mV (Axon Axoclamp 900 A, Molecular Devices, CA, USA) using two standard glass microelectrodes of 0.5–1 MΩ resistance when filled with 3 M KCl solution. […]
(§2) Specific to this work, the standard protocol was for oocytes to be conditioned at pH 7.45 and channels stimulated every 60 s using a 5 s pH 5 or 6 application, unless stated otherwise. […] Activation curves were determined by conditioning oocytes at pH 8 (Fig. 2e − g; and Fig. 5a and b) or 7.45 (Fig. 6; and Supplementary Fig. 2d and c) for 55 s and applying low pH stimuli from 7.25 to 5.0 for 5 s. Steady-state desensitisation (SSD) was determined by applying conditioning solutions of pH values from 8 to 6 for 115 s prior to stimulation by a pH drop to 5 for 5 s. […] Control pH-dependence curves were determined in the absence of any Ma-3. […]

[1] = tested on: rASIC1a: rASIC1b chimera C166; assay: TEVC oocytes, rASIC1a: rASIC1b chimera C166; assay type: cell-based, rat; details: conditioning pH 7.45, stimulating pH 5
Procedure: as §1, §2

H-SLKCYQHGKVVTCHRDMKFCYHNIGMPFRNLKLILQGCSSSCSETENNKCCSTDRCNK (disulfide 4-20, 13-38, 42-50, 51-56 (inferred)) [Ma-3, mambalgin-3]
pH50 of activation in presence of Ma-3 (rASIC1b C208Q; 300 nM Ma-3, conditioning pH 7.45, Hill fit, n = 5–6): 6.27 | Hill slope (95% CI) (rASIC1b C208Q; conditioning pH 7.45, pH 6 evoked currents, potentiation, 95% CI): 1.26–2.01 | activity of 300 nM Ma-3 [1]: inhibited a greater proportion of current
